Test results: patent US10376523B2, “Aqueous composition containing ripasudil, or a salt, or a solvate thereof” (KOWA COMPANY, LTD., priority 2014, dated 2019)

Key:
[1] = test system: Pseudomonas aeruginosa NBRC 13275 strain; assay: Test Example 1: growth inhibitory activity on Pseudomonas aeruginosa (membrane filter method, colony count); format: cell-based; conditions: 2 g ripasudil monohydrochloride dihydrate in 270 mL phosphate buffer pH 7.2
Protocol: (§1) In order to examine ripasudil for the presence or absence of growth inhibitory activity on microorganisms (bacteria and fungi), the following tests were performed using Pseudomonas aeruginosa as a bacterium and Candida albicans as a fungus. Pseudomonas aeruginosa NBRC 13275 strain was seeded on the soybean-casein digest medium (Merck Corporation) and cultured at 30 to 35° C. for 20 to 22 hours. The culture was then diluted with peptone saline buffer (pH 7.0) to 1,000 CFU/mL or less to obtain a test bacterial suspension. Two grams of ripasudil monohydrochloride dihydrate were dissolved in 270 mL of phosphate buffer (pH 7.2) to obtain a dilute sample solution. A sample was obtained by mixing 0.5 mL of the test bacterial suspension with 50 mL of the dilute sample solution (note that a mixture of 0.5 mL of the test bacterial suspension and 50 mL of phosphate buffer (pH 7.2) was used as a control sample). […] After the culture, the number of colonies formed was counted (note that the test was performed twice, and an average value was determined). From the determined number of colonies, a growth inhibitory ratio (%) was calculated using the following equation: Growth inhibitory ratio (%)=|(the number of colonies for the control sample−the number of colonies for the sample)|/the number of colonies for the control sample×100

[2] = test system: Candida albicans NERC 1594 strain; assay: Test Example 1: growth inhibitory activity on Candida albicans (membrane filter method, colony count); format: cell-based; conditions: 2 g ripasudil monohydrochloride dihydrate in 270 mL phosphate buffer pH 7.2
Protocol: as §1, with “fungus.” for “fungus. Pseudomonas aeruginosa NBRC 13275 strain was seeded on the soybean-casein digest medium (Merck Corporation) and cultured at 30 to 35° C. for 20 to 22 hours. The culture was then diluted with peptone saline buffer (pH 7.0) to 1,000 CFU/mL or less to obtain a test bacterial suspension.”, “sample×100 Candida albicans NERC 1594 strain was seeded on the Sabouraud-dextrose liquid medium (Merck Corporation) and cultured at 20 to 25° C. for 44 to 46 hours. […] After the culture, the number of colonies formed was counted (note that the test was performed twice, and an average value was determined). A growth inhibitory ratio (%) was also calculated.” for “sample×100”

[3] = at a concentration of 0.001%; cited from earlier work

C[C@H]1CNCCCN1S(=O)(=O)c1cccc2cncc(F)c12 [ripasudil, 4-fluoro-5-[[(2S)-2-methyl-1,4-diazepan-1-yl]sulfonyl]isoquinoline]
Number of Formed Colonies, Sample ([1]; contact 30 minutes or longer, average of two tests, control sample 47 colonies): 0
Growth Inhibitory Ratio ([1]; versus control sample): 100%
Number of Formed Colonies, Sample ([2]; contact 30 minutes or longer, average of two tests, control sample 37 colonies): 23
Growth Inhibitory Ratio ([2]; versus control sample): 37.8%

benzalkonium chloride
antimicrobial activity [3]: sufficient antimicrobial activity is not demonstrated
